Where two headings read alike, the source gives them in different places.
Assays:
[1] = test system: HCT116 human cancer cell line (colorectal cancer); assay: Cytotoxicity on HCT116 human cancer cell line (resazurin, 72 h); assay type: cell-based; settings: Homo sapiens, HCT-116
Excerpt: (§1) Brown oil, 89%. Rf 0.3 (Cyclohexane/EtOAc, 7/3). IR (neat, cm^−1): 1609, 1593, 1564, 1428, 1205, 1157. ^1H NMR (300 MHz, CDCl3): 8.08 (d, 1H, J=8.2 Hz), 7.90 (d, 1H, J=8.4 Hz), 7.77-7.72 (ddd, 1H, J=8.2 Hz, J=6.9 Hz, J=1.3 Hz), 7.44 (ddd, 1H, J=8.3 Hz, J=7.0 Hz, J=1.0 Hz), 6.49 (d, 2H, J=2.2 Hz), 6.27 (t, 1H, J=2.2 Hz), 4.90 (q, 1H, J=6.9 Hz), 3.73 (s, 6H), 2.91 (s, 3H), 1.78 (d, 3H, J=6.9 Hz). ^13C NMR (75 MHz, CDCl3): 171.8, 163.8, 161.0 (2C), 150.7, 146.9, 133.2, 128.5, 126.6, 124.7, 121.6, 106.2 (2C), 98.0, 55.4 (2C), 43.4, 26.9, 21.1. m/z MS (APCI^+): 309 (M+H)^+. Cytotoxicity Protocol. U87, H1299 and MDA-MB231 cells are grown in Dulbecco minimal essential medium (DMEM) containing 4.5 g/L glucose and supplemented with 10% foetal calf serum and 1% glutamine. K562 and HCT116 cells are grown in RPMI 1640 medium containing 10% foetal calf serum and 1% glutamine. All the cell lines are maintained in culture at 37° C. in a humid atmosphere containing 5% CO2. The cells are inoculated in 96-well culture plates in an amount of 5000 cells per well in 50 μL of culture medium. After 24 hours of culture, the molecule to be tested, dissolved in DMSO and diluted 1/1000 in suitable culture medium, is added in each well in an amount of 50 μL per well. After 72 hours of incubation, 20 μL of resazurin is added in each well. After 1 hour of incubation, emitted fluorescence is measured at 590 nm after excitation at 560 nm using the Victor fluorescence reader (Perkin-Elmer, USA). Each concentration is tested three times and each experiment is repeated three times. Protocol for Inhibition of Polymerisation of Tubulin. When tubulin is placed at a temperature of 0° C., it is in the form of free dimers. […] The IPT of the various synthesized analogues was determined on a soluble tubulin according to the method of Shelanski^7 from sheep brains where it constitutes 20 to 25% of soluble proteins. The “antitubulin” activity is evaluated according to the method of Gaskin^8 by measuring turbidity, which is proportional to the microtubule concentration in the suspension. Turbidity is measured by absorption of the suspension at 350 nm using a spectrophotometer fitted with a cell thermostatically-controlled at 37° C. The various samples were dissolved in DMSO and incubated 10 minutes at 37° C. then 5 minutes at 0° C. The tubulin assembly and disassembly curves are obtained by absorption kinetics at 350 nm as a function of time. The IC50 determined graphically is defined as the concentration of inhibitor necessary to decrease by 50% the maximum rate of assembly of the control tubulin. In Vitro Biological Study of Compounds of the Present Invention
The cytotoxic activity of the compounds was studied in vitro principally on the HCT116 human cancer cell line (colorectal cancer). The line selected for this study was incubated at 37° C. in the presence of one of the compounds added in the culture medium at various concentrations. The inhibitory concentration inducing the death of 50% of the cells (IC50) was determined after 72 hours of incubation (Table 1) for each compound. The set of experiments carried out made it possible to determine the degree of toxicity of the compounds tested by taking isoCA-4 as the reference. […] Lastly, when these first results are examined, it appears that the reduction of the double bond located between the two aromatic nuclei yields “reduced” type II derivatives about 10 times less cytotoxic than their precursors I as we had already noted during the reduction of isoCA-4 derivatives to isoerianin-type derivatives.

[2] = test system: tubulin; assay: Inhibition of polymerisation of tubulin (IPT); assay type: biochemical, sheep
Excerpt: as §1
The most cytotoxic compounds were selected for tests of inhibition of polymerisation of tubulin. These tests were carried out under the direction of Dr J. Dubois at Gif-sur-Yvette, France. Tubulin is purified from ewe brains according to the method of Shelanski^9 by two assembly-disassembly cycles. The stock solution (15-20 mg/mL), stored at −196° C., is thawed and diluted in assembly buffer (0.1 M MES, 0.5 mM MgCl2, 1 mM EGTA, and 1 mM GTP, pH 6.6) to have a final concentration of 10 μM. Tubulin assembly is monitored by fluorescence on 96-well plates according to the method of Barron et al.^10 Inhibitor (DMSO, 1 μL) is added to the tubulin solution (10 μM, 100 μL per well) and the solution is incubated 45 minutes at room temperature. GTP (1 mM final) is then added, the solution is mixed rapidly and fluorescence (λex=350 nm, λem=440 nm) is measured on a Wallac Victor fluorometer (Perkin Elmer). The inhibition of 50% of the maximum rate of assembly (IC50) is determined in duplicate or triplicate on 10 concentrations bracketing the IC50.

[3] = test system: K562 (chronic myeloid leukaemia); assay: Cytotoxicity on K562 line (resazurin, 72 h); assay type: cell-based; settings: Homo sapiens, K562; Table 2; 50% cell death after 72 hours of incubation; read-out: K562 IC50
Excerpt: as §1
(§2) Compounds I-15, I-16 and I-19 were also evaluated on a K562 chronic myeloid leukaemia line and a K562R imatinib-resistant chronic myeloid leukaemia line.

[4] = test system: K562R imatinib-resistant chronic myeloid leukaemia line; assay: Cytotoxicity on K562R line (72 h); assay type: cell-based; settings: Homo sapiens, K-562R; Table 2; 50% cell death after 72 hours of incubation
Excerpt: Brown oil, 89%. Rf 0.3 (Cyclohexane/EtOAc, 7/3). IR (neat, cm^−1): 1609, 1593, 1564, 1428, 1205, 1157. ^1H NMR (300 MHz, CDCl3): 8.08 (d, 1H, J=8.2 Hz), 7.90 (d, 1H, J=8.4 Hz), 7.77-7.72 (ddd, 1H, J=8.2 Hz, J=6.9 Hz, J=1.3 Hz), 7.44 (ddd, 1H, J=8.3 Hz, J=7.0 Hz, J=1.0 Hz), 6.49 (d, 2H, J=2.2 Hz), 6.27 (t, 1H, J=2.2 Hz), 4.90 (q, 1H, J=6.9 Hz), 3.73 (s, 6H), 2.91 (s, 3H), 1.78 (d, 3H, J=6.9 Hz). ^13C NMR (75 MHz, CDCl3): 171.8, 163.8, 161.0 (2C), 150.7, 146.9, 133.2, 128.5, 126.6, 124.7, 121.6, 106.2 (2C), 98.0, 55.4 (2C), 43.4, 26.9, 21.1. m/z MS (APCI^+): 309 (M+H)^+. Cytotoxicity Protocol. U87, H1299 and MDA-MB231 cells are grown in Dulbecco minimal essential medium (DMEM) containing 4.5 g/L glucose and supplemented with 10% foetal calf serum and 1% glutamine. K562 and HCT116 cells are grown in RPMI 1640 medium containing 10% foetal calf serum and 1% glutamine. All the cell lines are maintained in culture at 37° C. in a humid atmosphere containing 5% CO2. The cells are inoculated in 96-well culture plates in an amount of 5000 cells per well in 50 μL of culture medium. After 24 hours of culture, the molecule to be tested, dissolved in DMSO and diluted 1/1000 in suitable culture medium, is added in each well in an amount of 50 μL per well. […] After 1 hour of incubation, emitted fluorescence is measured at 590 nm after excitation at 560 nm using the Victor fluorescence reader (Perkin-Elmer, USA). […] The IPT of the various synthesized analogues was determined on a soluble tubulin according to the method of Shelanski^7 from sheep brains where it constitutes 20 to 25% of soluble proteins. The “antitubulin” activity is evaluated according to the method of Gaskin^8 by measuring turbidity, which is proportional to the microtubule concentration in the suspension. Turbidity is measured by absorption of the suspension at 350 nm using a spectrophotometer fitted with a cell thermostatically-controlled at 37° C. […]
as §2

[5] = Table 1, concentration inducing 50% cell death after 72 hours of incubation, read-out: HCT116 IC50
[6] = Table 3, inhibition of 50% of the maximum rate of assembly, tubulin 10 μM, read-out: IPT (IC50)
[7] = 72 hours of incubation, read-out: IC50 (cytotoxicity, HCT116)

IC50 [2, 6] [nM] | SMILES | IC50 [1, 5] [nM] | IC50 [1, 7] [nM] | further results
2900 | C=C(c1ccc(SC)cc1)c1nc(C)nc2ccccc12 [Compound I-4, 2-Methyl-4-(1-(4-(methylthio)phenyl)vinyl)quinazoline] | 52 | – | –
– | C=C(c1ccc(OC)c(OC)c1)c1nc(C)nc2ccccc12 [Compound I-2, 4-[1-(3,4-Dimethoxy-phenyl)-vinyl]-2-methyl-quinazoline] | 460 | – | –
2300 | C=C(c1ccc(OC)c(N)c1)c1nc(C)nc2ccccc12 [Compound I-7, 2-Methoxy-5-(1-(2-methylquinazolin-4-yl)vinyl)aniline] | 10 | < 20 | –
– | C=C(c1cc(OC)c(OC)c(OC)c1)c1nc(Cl)nc2ccccc12 [Compound I-12, 2-Chloro-4-[1-(3,4,5-trimethoxy-phenyl)-vinyl]-quinazoline] | 900 | – | melting point: 135 to 136 °C
– | C=C(c1ccc(OC)c(OC)c1)c1nc(Cl)nc2ccccc12 [Compound I-11, 2-Chloro-4-[1-(3,4-dimethoxy-phenyl)-vinyl]-quinazoline] | 700 | – | –
2200 | C=C(c1ccc2ccccc2c1)c1nc(C)nc2ccccc12 [Compound I-8, 2-Methyl-4-(1-(naphthalen-2-yl)vinyl)quinazoline] | 130 | – | melting point: 113.6 °C
– | C=C(c1ccc(OC(F)(F)F)cc1)c1nc(C)nc2ccccc12 [Compound I-3, 2-Methyl-4-(1-(4-(trifluoromethoxy)phenyl)vinyl)quinazoline] | 2300 | – | –
960 | C=C(c1ccc(OC)cc1)c1cc(C#N)nc2ccccc12 [Compound I-16, 4-(1-(4-Methoxyphenyl)vinyl)quinoline-2-carbonitrile] | – | < 20 | IC50 ([1]; Table 2, 50% cell death after 72 hours of incubation, read-out: HCT116 IC50): 1.6 nM; IC50 [3]: 9 nM; IC50 [4]: ≤ 1 nM
– | C=C(c1ccc(OC)cc1)c1cc(Cl)c2ccccc2n1 [Compound I-17, 4-Chloro-2-(1-(4-methoxyphenyl)vinyl)quinoline] | 95 | – | –
– | C=C(c1ccc(OC)c(O)c1)c1nc(C)nc2ccccc12 [Compound I-6, 2-Methoxy-5-(1-(2-methylquinazolin-4-yl)vinyl)phenol] | 10 | < 20 | IC50 ([2]; read-out: IC50 (inhibition of polymerisation of tubulin)): 600 nM
